Calls of active or inactive are those of the source. The calls are words filed in the database; no cut-off is given here.
Experiments:
SGC-7901 = assay: Antiproliferative activity against human SGC-7901 cells assessed as reduction in cell viability at 250 ug/ml by MTT assay relative to control; type: functional; conditions: dose 250 µg/ml
[1] = target: T1, Urease subunit alpha/Urease subunit beta (Helicobacter pylori (strain ATCC 700392 / 26695) (Campylobacterpylori), UniProt P69996); assay: Inhibition of Helicobacter pylori urease; type: protein-complex assay
T1 sequence (P69996 whole entry): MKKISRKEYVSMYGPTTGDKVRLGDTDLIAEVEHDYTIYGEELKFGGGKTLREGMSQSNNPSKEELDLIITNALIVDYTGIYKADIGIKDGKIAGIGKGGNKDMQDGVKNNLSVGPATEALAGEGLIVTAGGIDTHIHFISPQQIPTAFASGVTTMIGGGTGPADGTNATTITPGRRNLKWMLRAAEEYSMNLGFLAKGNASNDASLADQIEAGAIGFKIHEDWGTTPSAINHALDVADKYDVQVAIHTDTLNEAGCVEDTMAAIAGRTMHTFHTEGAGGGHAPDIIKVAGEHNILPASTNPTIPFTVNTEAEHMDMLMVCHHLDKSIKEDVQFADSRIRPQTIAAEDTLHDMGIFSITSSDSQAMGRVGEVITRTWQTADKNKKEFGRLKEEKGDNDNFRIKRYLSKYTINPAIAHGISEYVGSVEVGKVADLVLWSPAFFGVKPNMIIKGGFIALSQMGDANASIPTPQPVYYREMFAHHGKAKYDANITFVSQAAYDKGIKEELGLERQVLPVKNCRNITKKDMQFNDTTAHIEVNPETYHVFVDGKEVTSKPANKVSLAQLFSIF
T1 sequence (P14916 whole entry, further chain): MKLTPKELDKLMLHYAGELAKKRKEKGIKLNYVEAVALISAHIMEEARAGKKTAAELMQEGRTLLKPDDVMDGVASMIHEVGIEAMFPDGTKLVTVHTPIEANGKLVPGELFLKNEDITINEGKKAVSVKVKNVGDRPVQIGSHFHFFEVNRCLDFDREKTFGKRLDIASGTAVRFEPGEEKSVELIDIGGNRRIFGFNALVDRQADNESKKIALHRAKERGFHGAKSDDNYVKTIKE

HepG2 = assay: Antiproliferative activity against human HepG2 cells assessed as reduction in cell viability at 250 ug/ml by MTT assay relative to control; type: functional; conditions: dose 250 µg/ml
K562 = assay: Antiproliferative activity against human K562 cells assessed as reduction in cell viability at 250 ug/ml by MTT assay relative to control; type: functional; conditions: dose 250 µg/ml
[2] = target: T1, Urease subunit alpha/Urease subunit beta; assay: Mixed type inhibition of Helicobacter pyroli urease assessed as dissociation constant for EI complex by microplate reader analysis; type: protein-complex assay
[3] = target: T1, Urease subunit alpha/Urease subunit beta; assay: Mixed type inhibition of Helicobacter pyroli urease assessed as dissociation constant for ESI complex by microplate reader analysis; type: protein-complex assay
[4] = target: T1, Urease subunit alpha/Urease subunit beta; assay: Binding affinity to Helicobacter pyroli urease assessed as dissociation constant by surface plasmon resonance assay; type: protein-complex assay
[5] = target: T2, Urease subunit alpha/Urease subunit beta (Helicobacter pylori (strain ATCC 700392 / 26695) (Campylobacterpylori)) (UniProt P69996+P14916); assay: Potency index, ratio of acetohydroxamic acid IC50 to test compound IC50 for inhibition of Helicobacter pylori urease; type: protein-complex assay
T2 sequence (P14916 whole entry, looked up): as the sequence (P14916 whole entry, further chain) above
T2 sequence (P69996 whole entry, looked up): as the sequence (P69996 whole entry) above

[6] = target: T2, Urease subunit alpha/Urease subunit beta (Helicobacter pylori (strain ATCC 700392 / 26695) (Campylobacterpylori)); assay: Inhibition of Helicobacter pyroli urease at 100 ug/ml […]; type: protein-complex assay; conditions: dose 100.0 µg/ml, time <= 120.0 min, TDE = time-dependent effect
[7] = target: T2, Urease subunit alpha/Urease subunit beta (Helicobacter pylori (strain ATCC 700392 / 26695) (Campylobacterpylori)); assay: Inhibition of Helicobacter pyroli urease assessed as maximum inhibition at 100 ug/ml measured after 50 mins […]; type: protein-complex assay; conditions: dose 100.0 µg/ml

Structure (SMILES)	Activity (SGC-7901) [%]	IC50 [1] [µM]	Activity (HepG2) [%]	Activity (K562) [%]	Ki [2] [µM]	Ki [3] [µM]	Kd [4] [µM]	Ratio IC50 [5]	inhibition [6]	inhibition [7]
Cc1cc(C)c(S(=O)(=O)N(CC(=O)NO)c2cccc([N+](=O)[O-])c2)c(C)c1	85	96.4	87	94						
O=C(CN(c1cccc([N+](=O)[O-])c1)S(=O)(=O)c1ccc(Br)cc1)NO	86	0.13	91	87	0.065	1.2	0.00034	200	Tde	Active
Cc1ccccc1S(=O)(=O)N(CC(=O)NO)c1cccc([N+](=O)[O-])c1	90	7.1	87	90						
O=C(CN(c1cccc([N+](=O)[O-])c1)S(=O)(=O)c1ccccc1F)NO	92	6.9	80	87						
O=C(CN(c1cccc([N+](=O)[O-])c1)S(=O)(=O)c1ccccc1Cl)NO	90	22	93	91						
O=C(CN(c1cccc([N+](=O)[O-])c1)S(=O)(=O)c1cc(Cl)ccc1Cl)NO	81	27.5	80	84						
O=C(CN(c1cccc([N+](=O)[O-])c1)S(=O)(=O)c1cccc(F)c1)NO	90	0.74	89	93				35		
O=C(CN(c1cccc([N+](=O)[O-])c1)S(=O)(=O)c1ccc(Cl)cc1)NO	89	1.75	86	88						
O=C(CN(c1cccc([N+](=O)[O-])c1)S(=O)(=O)c1cc(F)ccc1F)NO	92	16.4	89	88						
O=C(CN(c1cccc([N+](=O)[O-])c1)S(=O)(=O)c1ccc(F)cc1)NO	90	3.33	91	92						
CC(=O)NO [ACETOHYDROXAMIC ACID]	72	26.3	76	64						
O=C(CN(c1cccc([N+](=O)[O-])c1)S(=O)(=O)c1ccc(C(F)(F)F)cc1)NO	90	9.57	93	87						
O=C(CN(c1cccc([N+](=O)[O-])c1)S(=O)(=O)c1ccccc1)NO	79	2.41	83	76						
Cc1ccc(S(=O)(=O)N(CC(=O)NO)c2cccc([N+](=O)[O-])c2)cc1	84	5.91	80	86						

Source: ChEMBL document CHEMBL5150033, “Synthesis, evaluation and mechanism exploration of 2-(N-(3-nitrophenyl)-N-phenylsulfonyl)aminoacetohydroxamic acids as novel urease inhibitors” (Bioorg Med Chem Lett, 2022)
